Measurements: PMC5037430 (Scientific Reports, 2016)
Read-outs that look alike come from different tables or passages of the source.

Target: T1, glycolate oxidase (GO); hydroxyacid oxidase 1 (HAO1) (Homo sapiens, UniProt Q9UJM8)
T1 construct: recombinant full-length human HAO1
T1 sequence (Q9UJM8 1-370): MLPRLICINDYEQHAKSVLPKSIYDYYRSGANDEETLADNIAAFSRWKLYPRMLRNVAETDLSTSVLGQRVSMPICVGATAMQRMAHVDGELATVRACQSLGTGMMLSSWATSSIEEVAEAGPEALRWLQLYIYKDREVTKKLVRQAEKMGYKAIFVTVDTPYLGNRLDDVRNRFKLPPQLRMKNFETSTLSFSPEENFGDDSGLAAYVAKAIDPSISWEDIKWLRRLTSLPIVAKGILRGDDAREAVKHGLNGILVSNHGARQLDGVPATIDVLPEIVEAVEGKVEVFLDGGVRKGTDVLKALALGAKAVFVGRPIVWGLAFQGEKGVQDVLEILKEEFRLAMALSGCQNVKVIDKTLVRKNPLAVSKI
Assay: hydrogen peroxide-Amplex red GO enzymatic assay; partial inhibition, less than […] at […]
Assay type: biochemical

Compound | IC50 (read-out: IC50) [µM] | IC50 [µM]
CC[C@H](NC(=O)c1c(C)c(-c2ccccc2)nc2ccccc12)c1ccccc1 [SB 222200] | > 100 | 
CCCc1nc2c(C)cc(-c3nc4ccccc4n3C)cc2n1Cc1ccc(-c2ccccc2C(=O)O)cc1 [Telmisartan] |  | > 100
